Literature values in patent US20210267955A1, “LOW DOSE ORAL PHARMACEUTICAL COMPOSITION OF PIRFENIDONE OR SALT THEREOF” (Zenvision Pharma LLP, priority 2018, published 2021).

Conditions: methanol, ethyl alcohol, acetone, chloroform vs water and 1.0 N hydrochloric acid

Cc1ccc(=O)n(-c2ccccc2)c1 [Pirfenidone, 5-methyl-1-phenyl-2-(1H)-pyridone]
solubility (qualitative): more soluble in methanol, ethyl alcohol, acetone and chloroform than in water and 1.0 N hydrochloric acid
